Results from US8987268B2, “Pyrrolopyridazine JAK3 inhibitors and their use for the treatment of inflammatory and autoimmune diseases” (Bristol-Myers Squibb Company, priority 2011, dated 2015).
Counter-ions that a name gives are not always drawn. Like-named read-outs stand apart in the source and are kept apart here.

Columns and labels:
GST-JAK3 enzyme = GST-JAK3 enzyme (Homo sapiens (Human), UniProt P52333); assay: JAK3 Kinase Assay Protocol (Caliper); format: biochemical; details: JAK3 kinase inhibition; read-out: LLE_JAK3_FB (IC50)
Method: JAK3 Kinase Assay Protocol (Caliper)
(§1) The assay reactions were performed in U-bottom 384-well plates. […] The reaction was initiated by the combination of GST-JAK3 enzyme with substrates and test compounds. The reactions were incubated at room temperature for 3 hours and terminated by adding 60 μl of 35 mM EDTA to each sample. Each reaction mixture was analyzed on the Caliper LabChip 3000 (Caliper, Hopkinton, Mass.) by electrophoretic separation of the fluorescent substrate and phosphorylated product. […] Compounds were dissolved at 10 mM in dimethylsulfoxide (DMSO) and evaluated at eleven concentrations. IC50 values were derived by non-linear regression analysis.

GST-JAK1 enzyme = GST-JAK1 enzyme (Homo sapiens (Human), UniProt P23458); assay: JAK1 Kinase Assay Protocol; format: biochemical; details: read-out: LLE_JAK1 (IC50)
Method: JAK1 Kinase Assay Protocol
as §1, with “GST-JAK1” for “GST-JAK3”

GST-JAK1 enzyme, sequence (P23458 whole entry): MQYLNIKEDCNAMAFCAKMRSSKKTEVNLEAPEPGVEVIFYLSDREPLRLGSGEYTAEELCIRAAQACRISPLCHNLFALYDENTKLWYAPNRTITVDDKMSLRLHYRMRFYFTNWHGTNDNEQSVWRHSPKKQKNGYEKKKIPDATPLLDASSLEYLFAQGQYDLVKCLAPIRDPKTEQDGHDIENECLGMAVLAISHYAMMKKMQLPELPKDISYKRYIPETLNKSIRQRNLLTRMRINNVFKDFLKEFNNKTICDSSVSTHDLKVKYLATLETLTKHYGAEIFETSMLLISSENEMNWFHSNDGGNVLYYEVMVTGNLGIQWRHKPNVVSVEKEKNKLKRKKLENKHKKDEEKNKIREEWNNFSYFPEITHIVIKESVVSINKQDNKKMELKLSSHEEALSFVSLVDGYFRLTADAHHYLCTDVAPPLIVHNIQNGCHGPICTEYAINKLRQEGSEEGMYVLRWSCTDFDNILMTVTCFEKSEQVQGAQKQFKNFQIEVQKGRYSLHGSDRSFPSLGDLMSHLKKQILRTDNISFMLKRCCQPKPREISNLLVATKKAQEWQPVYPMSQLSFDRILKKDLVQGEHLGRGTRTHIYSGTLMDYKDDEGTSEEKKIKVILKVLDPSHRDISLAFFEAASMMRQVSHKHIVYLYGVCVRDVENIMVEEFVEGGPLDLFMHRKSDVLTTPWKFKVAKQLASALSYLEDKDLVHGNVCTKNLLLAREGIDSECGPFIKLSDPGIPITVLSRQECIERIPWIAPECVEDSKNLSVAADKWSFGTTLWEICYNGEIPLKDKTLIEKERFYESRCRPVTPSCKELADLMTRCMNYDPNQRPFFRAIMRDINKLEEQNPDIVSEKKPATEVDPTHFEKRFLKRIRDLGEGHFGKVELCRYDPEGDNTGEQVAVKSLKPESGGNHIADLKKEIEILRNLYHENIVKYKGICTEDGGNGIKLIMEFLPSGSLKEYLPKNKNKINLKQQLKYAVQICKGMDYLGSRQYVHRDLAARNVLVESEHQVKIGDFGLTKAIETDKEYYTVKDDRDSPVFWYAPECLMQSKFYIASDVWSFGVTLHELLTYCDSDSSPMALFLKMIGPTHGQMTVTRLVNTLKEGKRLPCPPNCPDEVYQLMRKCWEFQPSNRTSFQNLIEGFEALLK
GST-JAK3 enzyme, sequence (P52333 whole entry): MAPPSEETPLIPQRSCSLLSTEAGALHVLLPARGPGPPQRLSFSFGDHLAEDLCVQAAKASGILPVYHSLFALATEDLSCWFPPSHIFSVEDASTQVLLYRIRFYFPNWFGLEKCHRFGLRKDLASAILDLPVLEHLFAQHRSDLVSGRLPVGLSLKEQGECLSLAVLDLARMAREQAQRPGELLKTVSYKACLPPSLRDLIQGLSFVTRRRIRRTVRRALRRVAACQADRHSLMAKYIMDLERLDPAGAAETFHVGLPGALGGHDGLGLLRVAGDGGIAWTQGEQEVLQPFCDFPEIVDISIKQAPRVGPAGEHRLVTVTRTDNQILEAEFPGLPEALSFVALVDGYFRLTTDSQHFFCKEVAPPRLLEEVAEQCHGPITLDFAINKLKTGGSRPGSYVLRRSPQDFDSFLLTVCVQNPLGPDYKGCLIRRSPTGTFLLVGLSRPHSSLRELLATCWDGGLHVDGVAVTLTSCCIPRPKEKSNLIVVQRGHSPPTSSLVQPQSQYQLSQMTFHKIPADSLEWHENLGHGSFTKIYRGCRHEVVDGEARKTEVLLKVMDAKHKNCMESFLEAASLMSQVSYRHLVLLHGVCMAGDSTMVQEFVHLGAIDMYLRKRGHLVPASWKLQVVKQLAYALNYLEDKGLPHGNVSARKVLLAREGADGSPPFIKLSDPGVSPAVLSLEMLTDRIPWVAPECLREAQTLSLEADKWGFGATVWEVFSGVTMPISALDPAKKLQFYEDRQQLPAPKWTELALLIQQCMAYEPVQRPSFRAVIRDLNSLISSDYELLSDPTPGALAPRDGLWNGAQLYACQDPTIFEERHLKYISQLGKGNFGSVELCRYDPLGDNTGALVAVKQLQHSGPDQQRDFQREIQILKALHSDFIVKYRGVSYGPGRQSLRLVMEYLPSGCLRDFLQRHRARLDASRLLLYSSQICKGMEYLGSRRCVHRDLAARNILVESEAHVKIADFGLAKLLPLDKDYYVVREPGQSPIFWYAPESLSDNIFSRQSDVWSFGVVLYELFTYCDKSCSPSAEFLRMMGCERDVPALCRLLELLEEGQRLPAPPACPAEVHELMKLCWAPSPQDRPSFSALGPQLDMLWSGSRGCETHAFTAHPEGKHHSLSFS

Structure (SMILES)	IC50 (GST-JAK3 enzyme)	IC50 (GST-JAK1 enzyme; JAK1 kinase inhibition)	IC50 (GST-JAK1 enzyme)
CCCC(=O)O[C@H]1CCN(c2cc3c(N[C@@H]4CCN(c5ncc(C#N)cn5)CC4(C)C)c(C(N)=O)cnn3c2)C1=O [Example 122, (S)-1-(3-carbamoyl-4-(((R)-1-(5-cyanopyrimidin-2-yl)-3,3-dimethylpiperidin-4-yl)amino)pyrrolo[1,2-b]pyridazin-6-yl)-2-oxopyrrolidin-3-yl butyrate]	1.4 nM	2.4 nM	–
C[C@@H]1[C@H]2CN(C(=O)CO)C[C@H]2C[C@H]1Nc1c(C(N)=O)cnn2cc(-c3ccc(C(N)=O)cc3)cc12 [Example 61, 6-(4-carbamoylphenyl)-4-(((3aS,4R,5R,6aS)-2-glycoloyl-4-methyloctahydrocyclopenta[c]pyrrol-5-yl)amino)pyrrolo[1,2-b]pyridazine-3-carboxamide]	0.4 nM	0.3 nM	–
CCC(=O)N1C[C@H]2C[C@@H](Nc3c(C(N)=O)cnn4cc(-c5ccc(F)nc5)cc34)[C@H](C)[C@H]2C1 [Example 97, 6-(6-fluoropyridin-3-yl)-4-((3aS,4R,5R,6aS)-4-methyl-2-propionyloctahydrocyclopenta[c]pyrrol-5-ylamino)pyrrolo[1,2-b]pyridazine-3-carboxamide]	1.4 nM	3.1 nM	–
C[C@@H]1[C@H]2CN(C(=O)CF)C[C@H]2C[C@H]1Nc1c(C(N)=O)cnn2cc(-c3cnc(N)c(F)c3)cc12 [Example 69, 6-(6-amino-5-fluoropyridin-3-yl)-4-((3aS,4R,5R,6aS)-2-(2-fluoroacetyl)-4-methyloctahydrocyclopenta[c]pyrrol-5-ylamino)pyrrolo[1,2-b]pyridazine-3-carboxamide]	1.5 nM	–	1.2 nM
CC[C@@H]1CN(C(=O)[C@H](C)O)CC[C@H]1Nc1c(C(N)=O)cnn2cc(-c3cnn(CC(C)C)c3)cc12 [Example 137, 4-((3R,4R)-3-ethyl-1-((S)-2-hydroxypropanoyl)piperidin-4-ylamino)-6-(1-isobutyl-1H-pyrazol-4-yl)pyrrolo[1,2-b]pyridazine-3-carboxamide]	1.4 nM	2 nM	–
Cn1nccc1-c1cc2c(NC3CCOCC3)c(C(N)=O)cnn2c1 [Example 30, 6-(1-methyl-1H-pyrazol-5-yl)-4-(tetrahydro-2H-pyran-4-ylamino)pyrrolo[1,2-b]pyridazine-3-carboxamide]	110 nM	190 nM	–
CCNC(=O)c1ccc(-c2cc3c(N[C@@H]4CN(C(=O)C(C)(C)C#N)C[C@@H]4CC)c(C(N)=O)cnn3c2)cn1 [Example 252, 4-((3S,4S)-1-(2-cyano-2-methylpropanoyl)-4-ethylpyrrolidin-3-ylamino)-6-(6-(ethylcarbamoyl)pyridin-3-yl)pyrrolo[1,2-b]pyridazine-3-carboxamide]	8.6 nM	4.3 nM	–
C[C@@H]1[C@H]2CN(S(C)(=O)=O)C[C@H]2C[C@H]1Nc1c(C(N)=O)cnn2cc(-c3cnc(N)nc3)cc12 [Example 59, 6-(2-amino-5-pyrimidinyl)-4-(((3aS,4R,5R,6aS)-4-methyl-2-(methylsulfonyl)octahydrocyclopenta[c]pyrrol-5-yl)amino)pyrrolo[1,2-b]pyridazine-3-carboxamide]	0.6 nM	0.2 nM	–
CC[C@H]1CN(C(=O)C2(C#N)CC2)C[C@H]1Nc1c(C(N)=O)cnn2cc(-c3ccc(C)nc3)cc12 [Example 221, 4-((3S,4S)-1-(1-cyanocyclopropanecarbonyl)-4-ethylpyrrolidin-3-ylamino)-6-(6-methylpyridin-3-yl)pyrrolo[1,2-b]pyridazine-3-carboxamide]	1.4 nM	1 nM	–
CCOc1ncc(-c2cc3c(N[C@@H]4CN(C(=O)C5(C#N)CC5)C[C@@H]4CF)c(C(N)=O)cnn3c2)cn1 [Example 281, 4-((3S,4S)-1-(1-cyanocyclopropanecarbonyl)-4-(fluoromethyl)pyrrolidin-3-ylamino)-6-(2-ethoxypyrimidin-5-yl)pyrrolo[1,2-b]pyridazine-3-carboxamide]	11.8 nM	1.8 nM	–
CNC(=O)Cn1cc(-c2cc3c(N[C@@H]4CN(c5ccc(Cl)cn5)C[C@@H]4C)c(C(N)=O)cnn3c2)cn1 [Example 188, 4-(((3S,4S)-1-(5-chloropyridin-2-yl)-4-methylpyrroldin-3-yl)amino)-6-(1-(2-(methylamino)-2-oxoethyl)-1H-pyrazol-4-yl)pyrrolo[1,2-b]pyridazine-3-carboxamide]	0.5 nM	0.4 nM	–
NC(=O)c1cnn2cc(-c3cnc4ccccc4c3)cc2c1NC1CCOCC1 [Example 35, 6-(3-quinolinyl)-4-(tetrahydro-2H-pyran-4-ylamino)pyrrolo[1,2-b]pyridazine-3-carboxamide]	40 nM	40 nM	–
NC(=O)c1cnn2cc(-c3cccnc3)cc2c1NC1CCOCC1 [Example 31, 6-(3-pyridinyl)-4-(tetrahydro-2H-pyran-4-ylamino)pyrrolo[1,2-b]pyridazine-3-carboxamide]	70 nM	120 nM	–
CC[C@H]1CN(c2ncc(C#N)s2)C[C@H]1Nc1c(C(N)=O)cnn2cc(-c3cnn(CC(C)C)c3)cc12 [Example 183]	0.2 nM	0.8 nM	–
CC[C@H]1CN(c2ccc(C#N)cn2)C[C@H]1Nc1c(C(N)=O)cnn2cc(-c3cnn(C)c3)cc12 [Example 175, 4-((3S,4S)-1-(5-cyanopyridin-2-yl)-4-ethylpyrrolidin-3-ylamino)-6-(1-methyl-1H-pyrazol-4-yl)pyrrolo[1,2-b]pyridazine-3-carboxamide]	1.5 nM	1.9 nM	–
CNC(=O)c1ccc(-c2cc3c(N[C@@H]4C[C@@H]5CN(C(=O)C(C)(C)O)C[C@@H]5[C@H]4C)c(C(N)=O)cnn3c2)cn1 [Example 63, 4-(((3aS,4R,5R,6aS)-2-(2-hydroxy-2-methylpropanoyl)-4-methyloctahydrocyclopenta[c]pyrrol-5-yl)amino)-6-(6-(methylcarbamoyl)-3-pyridinyl)pyrrolo[1,2-b]pyridazine-3-carboxamide]	0.7 nM	0.4 nM	–
CNC(=O)c1cccc(-c2cc3c(N[C@@H]4CN(C(=O)C5(C#N)CC5)C[C@@H]4OC)c(C(N)=O)cnn3c2)c1 [Example 303, 4-(((3R,4S)-1-(1-cyanocyclopropanecarbonyl)-4-methoxypyrrolidin-3-yl)amino)-6-(3-(methylcarbamoyl)phenyl)pyrrolo[1,2-b]pyridazine-3-carboxamide]	1.5 nM	0.5 nM	–
NC(=O)c1cnn2cc(-c3ccccc3)cc2c1N[C@@H]1CCCNC1 [Example 48, (R)-6-phenyl-4-(piperidin-3-ylamino)pyrrolo[1,2-b]pyridazine-3-carboxamide, HCl]	57.1 nM	53.4 nM	–
